From patent publication US7750184B2, “Vitamin D receptor modulators” (Eli Lilly and Company, priority 2003, dated 2010)
Where two headings read alike, the source gives them in different places.

Assays:
RXR-VDR heterodimer = molecular target: T1, RXR-VDR heterodimer (Homo sapiens, UniProt P11473); assay: RXR-VDR heterodimerization assay (SaOS-2 cells); assay type: cell-based; conditions: Gal4-RXR-DEF / VP16-VDR-LBD, luciferase reporter
T1 construct: Add the Gal4-RXR-DEF and VP16-VDR-LBD; expressed in transfected cells; host or cells: SaOS-2 cells
T1 sequence (P11473 127-423 limits assumed): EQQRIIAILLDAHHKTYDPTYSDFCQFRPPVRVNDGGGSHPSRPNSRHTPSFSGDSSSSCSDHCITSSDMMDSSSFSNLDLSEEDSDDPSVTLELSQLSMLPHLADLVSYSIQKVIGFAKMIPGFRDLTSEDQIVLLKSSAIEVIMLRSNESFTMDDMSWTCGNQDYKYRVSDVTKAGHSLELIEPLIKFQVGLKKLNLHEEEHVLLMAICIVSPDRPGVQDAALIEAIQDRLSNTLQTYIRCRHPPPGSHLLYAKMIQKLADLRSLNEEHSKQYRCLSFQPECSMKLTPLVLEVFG
T1 sequence (P19793 201-462 partner limits assumed): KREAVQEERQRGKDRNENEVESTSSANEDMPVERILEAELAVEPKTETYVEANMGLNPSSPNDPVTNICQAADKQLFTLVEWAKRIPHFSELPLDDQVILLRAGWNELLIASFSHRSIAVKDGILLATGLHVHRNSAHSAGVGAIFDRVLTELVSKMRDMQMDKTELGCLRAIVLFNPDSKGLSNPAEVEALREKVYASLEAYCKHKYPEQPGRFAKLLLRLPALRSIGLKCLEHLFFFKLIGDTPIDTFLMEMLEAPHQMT
Description: 1. The RXR-VDR heterodimer Assay:
This assay provides the VDR activity of a test compound.
(1) Materials and Method for RXR-VDR Heterodimerization Assay:
Luciferase Assay Reagent: • Use Steady-Glo Luciferase Reagent from Promega (Cat # E2550) Consists of:
Add plain DMEM media to tubes for mixing the DNA
Add the Reporter gene pFR-LUC
Add the Gal4-RXR-DEF and VP16-VDR-LBD
Make a stock solution of the compounds in DMSO
Further dilute in D-MEM (Low Glucose—With out Phenol Red)
Read the plates after drug treatment
Add Steady-Glo Luciferase Reagent mixture/wells
Count each well using a Luminescence counter, Top Count NXT by Packard

VDR = molecular target: T2, VDR (Homo sapiens, UniProt P11473); assay: Caco-2 cell co-transfection assay (VDR CTF); assay type: cell-based; conditions: Caco-2 cells, pGal4-VDR-LBD co-transfection, luciferase reporter
T2 construct: the receptor expression vector pGal4-VDR-LBD (10 ng); expressed in transfected cells; host or cells: Caco-2 cells
T2 sequence (P11473 127-423 limits assumed): T1 sequence (P11473 127-423 limits assumed)
Description: 2. The Caco-2 Cell Co-Transfection Assay:
The Caco-2 cell assay is an indicator for the undesirable condition of hypercalcemia. This co-transfection assay is a surrogate assay for in vivo calcemic activity of VDR ligands. […] Preferred assay results are greater than 1000 nM.
(2) Materials and Method for The Caco-2 Cell Assay:
Caco-2 cells, grown in phenol red free, DMEM (Invitrogen, Carlsbad, Calif.) containing 10% charcoal-stripped FCS (Hyclone, Logan, Utah), were transfected with Fugene 6 reagent (Roche Diagnostics, Indianapolis, Ind.). Cells (5000/well) were plated 18 h before transfection in a 96 well plate. The Cells were transfected with Gal4-responsive reporter pFRLuc (150 ng, Stratagene, La Jolla Calif.) and the receptor expression vector pGal4-VDR-LBD (10 ng), along with Fugene 6 reagent (0.2 μl/well). The DNA-Fugene complex was formed by incubating the mixture for 30 min at room temperature. The cells were transfected in triplicate for 5 h, and treated with various concentrations of VDR ligands (form 0.01 nM to 10,000 nM concentration range) 18 h post-transfection. The luciferase activity was quantified using Steady-Glo reagent kit (Promega, Madison, Wis.) as per manufacturer's specifications.

rat osteocalcin promoter = assay: OCN (osteocalcin) promoter assay; assay type: cell-based; conditions: RG-15 (ROS 17/2.8) cells, 48 hr treatment, luciferase reporter
Description: 3. The OCN (osteocalcin) Promoter Assay
The OCN Promoter Assay is an indicator and marker for osteoporosis. […] Preferred assay results are less than 50 nM.
(3) Materials and Method for the OCN Promoter Assay:
The activation of osteocalcin by VDR ligands was evaluated in a rat osteoblast-like cell line RG-15 (ROS 17/2.8) stably expressing rat osteocalcin promoter fused with luciferase reporter gene. […] Confluent RG-15 cells maintained in DMEM/F-12 medium (3:1) containing 5% FBS, 300 μg/ml G418 and at 37° C. under 5% CO2/95% air atmosphere were trypsinized (0.25% trypsin) and plated into white opaque 96-well cell culture plates (25000 cells/well). After 24 hr, cells (in DMEM/F-12 medium+2% FBS) were treated with various concentrations of compounds, dissolved in DMSO. The final DMSO concentration remained at 0.01% (v/v). After 48 hr treatment, the medium was removed, cells were lysed with 50 μl of lysis buffer (From Luciferase reporter assay system, Roche Diagnostics, Indianapolis, Ind.) and assayed for luciferase activity using the Luciferase Reporter Gene Assay kit from Boehringer Mannheim as per manufacturer's specifications.

KERtr cells = assay: Keratinocyte proliferation assay; assay type: cell-based; conditions: Homo sapiens, 72 hr, BrdU incorporation, read-out: Kera. Prolif. IC50
Description: 5. The Keratinocte Proliferation Assay
This Assay is indicative for the treatment of psoriasis.
(5) The Keratinocyte Proliferation Assay:
KERtr cells (Human skin keratinocyte transformed with a retrovirus vector, obtained from ATCC) were plated in 96-well flat-bottomed plates (3000 cells/well) in 100 µl keratinocyte serum free medium supplemented with bovine pituitary extract in the absence of EGF (Life Technologies, Rockville, Md.) and incubated at 37° C. for two days. The cells were treated with various concentrations of VDR ligands (ten-fold serial dilution from 10,000 nM to 0.1 nM in triplicate), dissolved in 100 μl keratinocyte serum free medium supplemented with bovine pituitary extract in the absence of EGF and incubated at 37° C. for 72 hr. BrdU (5-bromo-2′-deoxyuridine) incorporation was analyzed as a measure of DNA replication (Cell proliferation ELISA kit, Roche Diagnostics, Indianapolis, Ind.) and absorbance was measured at 405 nm. Potency values (IC50) values were determined as the concentration (nM) of compound that elicited a half-maximal response.

[1] = test system: IL-10 production in PBMCs; assay: IL-10 induction assay; assay type: cell-based; conditions: PBMC; TPA/PHA stimulated human PBMCs, IL-10 immunoassay
Description: 6. The IL-10 induction Assay
This is an in vitro efficacy assay for psoriasis, abscess and adhesion. Psoriasis involves both keratinocytes and immune cells. IL-10 is a unique cytokine because it is anti-inflammatory and immunosuppressive. This assay tells us whether a VDRM is able to function as an agonist in PBMCs (primary blood mononuclear cells) or not. A lower EC50 value is desirable in this assay since a compound with a lower EC50 value will be a better agonist in PBMCs.
(6) Materials and Method for Human IL-10 Induction Assay:
Isolation of Peripheral Blood Mononuclear Cells (PBMCs):
• A. Collect 50 ml of human blood and dilute with media, RPMI-1640. • B. Prepare sterile tubes with ficol. • C. Add diluted blood to tubes. • D. Centrifuge. • E. Discard the top layer and collect the cells from middle layer. • F. Divide all cells into four tubes and add media. • G. Centrifuge. • H. Aspirate off media and resuspend. • I. Collect all cells • J. Centrifuge. at 1200 rpm for 10 minutes. • K. Resuspend in RPMI-1640 with 2% FBS and count cells • Stimulation of PBMC: • L. Prepare TPA in DMSO. • M. Dissolve PHA in water. • N. Plate TPA/PHA treated PBMCs in well plates. • O. Incubate.
Treatment: • P. Prepare all compound dilutions in plain RPMI-1640 media. • Q. Add diluted compound. • R. Incubate. […]

[2] = Mouse hypercalcemia assay; conditions: oral gavage for 6 days, serum ionized calcium 6 hours after last dosing
Description: (§1) The Mouse Hypercalcemia Assay is a six day hypercalcemia test for toxicity and selectivity. Acceptable test results are levels greater than 300 μg/kg/day. Preferred assay results are levels greater than 1000 μg/day.
(§2) (4) Materials and Method for the Mouse Hypercalcemia Assay:
(§3) Weanling, virus—antibody-free, five to six weeks old female DBF mice (Harlan, Indianapolis, Ind.) are used for all the studies. Animals are allowed to acclimate to local vivarium conditions for 2 days. […] The animals then are divided into groups with 4-5 mice per group. Different doses of test compounds prepared in 10% Ethanol and 90% sesame oil are administered to mice orally via gavage for 6 days. 1α-25(OH)2D3 0.5 μg/kg/d was also given to one group of mice as the positive control. […] Raw data of group differences is assessed by analysis of variance (ANOVA) using Fisher's protected least significant difference (PLSD) where the significance level was P<0.05.

[3] = in vivo, po
Description: as §1, §2, §3

| Mouse Hypercal [3] [µg/kg/day] | SMILES | EC50 (RXR-VDR heterodimer) [nM] | EC50 (VDR) [nM] | EC50 (rat osteocalcin promoter) [nM] | IC50 (KERtr cells) [nM] | IC50 [1] [nM] | EC50 (rat osteocalcin promoter; Rattus norvegicus, 48 h) [nM] | Mouse Hypercal [2] [µg/kg/day] |
| --- | --- | --- | --- | --- | --- | --- | --- | --- |
| – | CCC(CC)(c1ccc(OS(C)(=O)=O)cc1)c1ccc(OCC(O)C(C)(C)C)c(Cl)c1 (single isomer, unassigned) [Ex. 45, 51B, 3′-[3-chloro-4-(2-hydroxy-3,3-dimethylbutoxy)phenyl]-3′-(4-methylsulfonyloxyphenyl)pentane] | 24 | 353 | 13 | 27 | 39.5 | – | – |
| – | CCC(CC)(c1ccc(OCC(=O)C(C)(C)C)cc1)c1ccc(OS(C)(=O)=O)c(C)c1 [Ex. 36, 3′-[4-(2-oxo-3,3-dimethylbutoxy)-phenyl]-3′-[4-methylsulfonyloxy-3-methylphenyl]pentane] | 15.2 | 592 | – | 36 | – | 45.5 | >3000 |
| – | CCC(CC)(c1ccc(OS(C)(=O)=O)cc1)c1ccc(OCC(=O)C(C)(C)C)c(Cl)c1 [Ex. 42, 3′-[3-chloro-4-(2-oxo-3,3-dimethylbutoxy)phenyl]-3′-[4-(methylsulfonyloxy)phenyl]pentane] | 495 | 728 | – | 9 | – | 25.1 | <1000 |
| – | CCCS(=O)(=O)N(c1ccc(C(CC)(CC)c2ccc(OCC(=O)C(C)(C)C)c(C)c2)cc1C)S(=O)(=O)CCC [Ex. 25, N-(4-{1-[4-(3,3-Dimethyl-2-oxo-butoxy)-3-methyl-phenyl]-1-ethyl-propyl}-2-methyl-phenyl)-N,N-bis-1-propanesulfonamide] | 47.3 | 1290 | – | 14.6 | – | 34.2 | – |
| – | CCCS(=O)(=O)Nc1ccc(C(CC)(CC)c2ccc(OCC(=O)C(C)(C)C)c(C)c2)cc1C [Ex. 26, N-(4-{1-[4-(3,3-Dimethyl-2-oxo-butoxy)-3-methyl-phenyl]-1-ethyl-propyl}-2-methyl-phenyl)-1-propanesulfonamide] | 5.7 | 333 | – | 4.4 | – | 3.69 | <1000 |
| 0.06 | C=C1/C(=C\C=C2/CCC[C@]3(C)[C@@H]([C@H](C)CCCC(C)(C)O)CC[C@@H]23)C[C@@H](O)C[C@@H]1O [AA, 1α,25-dihydroxyvitamin D3] | – | – | – | – | – | – | – |
| – | CCC(CC)(c1ccc(OCC(=O)C(C)(C)C)c(C)c1)c1ccc(N(C)S(C)(=O)=O)c(C)c1 [Ex. 18, N-(4-{1-[4-(3,3-Dimethyl-2-oxo-butoxy)-3-methyl-phenyl]-1-ethyl-propyl}-2-methyl-phenyl)-N-methyl-methanesulfonamide] | 69.6 | 485 | – | 32 | – | 7.62 | 1500 |
| – | CCC(CC)(c1ccc(OS(=O)(=O)C(F)(F)F)cc1)c1ccc(OCC(O)C(C)(C)C)c(Cl)c1 (stereo not shown) [Ex. 47, 53, 3′-[3-chloro-4-(2-hydroxy-3.3-dimethylbutoxy)phenyl]-3′-(4-trifluoromethylsulfonyloxyphenyl)pentane] | 12.5 | 431 | – | 300 | – | 92.5 | – |
